Test results published in patent US10774053B2, “HIV protease inhibitors” (Gilead Sciences, Inc., priority 2017, dated 2020).
Like-named read-outs stand apart in the source and are kept apart here.

What was measured:
[1] = tested on: HIV-1 (IIIB) in MT-4 cells; experiment: microbe, parasite or virus in culture; assay type: cell-based; details: Human immunodeficiency virus 1, IIIB
[2] = Liver microsomal stability, human liver microsomes; details: human
Protocol: Liver Microsomal Stability Protocol
Test compounds and one control compound (verapamil) were tested in 3 different species in duplicate sets.
Test compound concentration: 1 uM; Protein concentration: 0.5 mg/mL (for dog, rat, and human liver microsomes); Cofactor: NADPH-Regenerating system (NRS) solution; Time-points: 2, 12, 25, 45, and 65 minutes.
Reaction Composition (in Each Incubation Well) Contains:
At an incubation temperature of 37° C., the reaction was started with addition of NADPH Regeneration System, at each time point, 25 uL of the reaction mixture was removed and added to a plate with 225 uL quenching solution (50% MeOH, 25% ACN, 25% H2O, and 200 nM labetalol as internal standard). After plates were vortexed, they were centrifuged for 30 minutes to remove proteins. About 100 μL supernatant was removed to a new plate and diluted with 150 μL water. About 20 μL of the mixture was injected into LC/MS/MS system to monitor the compound's response. In vitro measured t1/2 was used to calculate Clint values.

[3] = MT4, MT-4 cells, HIV-1, read-out: MT4 EC50

Compound | EC50 [1, 3] | half-life at 1 uM ([2]; liver microsomes) | EC50 ([1]; MT4, read-out: MT4 EC50 (nM)) | half-life at 1 uM ([2]; microsomes)
CC(C)(C)C[C@]1(c2ccc(-c3cnn(C(F)F)c3)cc2)NC(=N)N([C@H](COC(=O)NC(C)(C)C(F)F)c2ccc(Cl)c(-c3nncn3C(F)F)c2)C1=O [Compound 91] | 200 nM | ≥ 6.58 h |  | 
[2H]C([2H])([2H])n1cnc(-c2cc([C@@H](COC(=O)NC(C)(C)C(F)F)N3C(=N)N[C@](C[C@]4(C)CC4(F)F)(c4ccc(-c5cnn(C(F)F)c5)cc4)C3=O)ccc2Cl)n1 [Compound 97] | 18.9 nM | ≥ 6.58 h |  | 
CC(C)(C)C[C@]1(c2ccc(-c3ncccn3)cc2)NC(=N)N([C@H](COC(=O)NC2(C(F)(F)F)CC2)c2ccc(Cl)c(-c3ncn[nH]3)c2)C1=O [Compound 105] | 36.7 nM | ≥ 6.58 h |  | 
CC(C)(C)C[C@]1(c2ccc(-c3cnn(C(F)F)c3)cc2F)NC(=N)N([C@H](COC(=O)NC2(C(F)(F)F)CC2)c2ccc(Cl)c(-c3ncn[nH]3)c2)C1=O [Compound 110] | 96 nM | ≥ 6.58 h |  | 
CC(C)(F)C[C@]1(c2ccc(-c3cnn(C(F)F)c3)cc2)NC(=N)N([C@H](COC(=O)NC(C)(C)C(F)F)c2ccc(Cl)c(-c3ncnn3C(F)F)c2)C1=O [Compound 129] | 27.3 nM | ≥ 6.58 h |  | 
CC(C)(F)C[C@]1(c2ccc(-c3cnn(C(F)F)c3)cc2)NC(=N)N([C@H](COC(=O)NC2(C(F)(F)F)CC2)c2ccc(Cl)c(-c3ncnn3C(F)F)c2)C1=O [Compound 134] | 18.5 nM | ≥ 6.58 h |  | 
CC(C)(C[C@]1(c2ccc(-c3cnn(C4CC4)c3)cc2)NC(=N)N([C@H](COC(=O)NC2(C(F)(F)F)CC2)c2ccc(Cl)c(-c3ncnn3C(F)F)c2)C1=O)C(F)(F)F [Compound 135] | 13.6 nM | ≥ 6.58 h |  | 
C[C@H](NC(=O)OC[C@H](c1ccc(Cl)c(-c2ncnn2C(F)F)c1)N1C(=N)N[C@](CC(C)(C)C(F)(F)F)(c2ccc(-c3cnn(C4CC4)n3)cc2)C1=O)C(F)(F)F [Compound 153] | 14 nM | ≥ 6.58 h |  | 
CC(C)(C[C@]1(c2ccc(-c3cnn(C4CC4)n3)cc2)NC(=N)N([C@H](COC(=O)NC2(C(F)(F)F)CC2)c2ccc(Cl)c(-c3ncnn3C(F)F)c2)C1=O)C(F)F [Compound 154] | 19.7 nM | ≥ 6.58 h |  | 
CC(C)(C[C@]1(c2ccc(-c3cnn(C4CC4)n3)cc2)NC(=N)N([C@H](CNC(=O)CC(F)(F)F)c2ccc(Cl)c(-c3ncnn3C(F)F)c2)C1=O)C(F)(F)F [Compound 160] | 12.6 nM | ≥ 6.58 h |  | 
C[C@H](NC(=O)OC[C@H](c1ccc(Cl)c(-c2ncnn2C(F)F)c1)N1C(=N)N[C@](CC(C)(C)C)(c2ccc(-c3cnn(C(F)F)n3)cc2)C1=O)C(F)(F)F [Compound 163] | 9.06 nM | ≥ 6.58 h |  | 
CC(C)(C)C[C@]1(c2ccc(-c3cnn(C(F)F)c3)cc2)NC(=N)N([C@H](COC(=O)NC2(C(F)F)CC2)c2ccc(Cl)c(-n3ncnc3C(F)F)c2)C1=O [Compound 179] |  |  | 9.37 nM | ≥ 6.58 h
CC(C)(C)C[C@]1(c2ccc(-c3cnn(C(F)F)c3)cc2)NC(=N)N([C@H](COC(=O)NC(C)(C)C(F)(F)F)c2ccc(Cl)c(-n3ncnc3C(F)F)c2)C1=O [Compound 182] | 12 nM | ≥ 6.58 h |  | 
CC(C)(C)C[C@]1(c2ccc(-c3cnn(C4CC4)n3)cc2F)NC(=N)N([C@H](COC(=O)NC2(C(F)(F)F)CC2)c2ccc(Cl)c(-n3ncnc3C(F)F)c2)C1=O [Compound 224] | 19.5 nM | ≥ 6.58 h |  | 
CC(C)C[C@]1(c2ccc(-c3cnn(C(F)F)c3)cc2F)NC(=N)N([C@H](COC(=O)NC2(C(F)(F)F)CC2)c2ccc(Cl)c(-n3ncnc3C(F)F)c2)C1=O [Compound 278] | 23.6 nM | ≥ 6.58 h |  | 
Cn1ccc(-c2ccc([C@@]3(CC(C)(C)C)NC(=N)N([C@H](COC(=O)NC4(C(F)(F)F)CC4)c4ccc(Cl)c(-n5ncnc5C(F)F)c4)C3=O)cc2F)n1 [Compound 289] | 8.26 nM | ≥ 6.58 h |  | 
